Measurements reported in patent US20030166201A1, “Selection systems for genetically modified cells” (priority 2001, published 2003).
Like-named read-outs stand apart in the source and are kept apart here.

Tests used:
DHODH [1] = target: T1, DHODH (Homo sapiens, UniProt Q02127); conditions: cited from earlier work
Target sequence in this assay (Q02127 whole entry, species assumed): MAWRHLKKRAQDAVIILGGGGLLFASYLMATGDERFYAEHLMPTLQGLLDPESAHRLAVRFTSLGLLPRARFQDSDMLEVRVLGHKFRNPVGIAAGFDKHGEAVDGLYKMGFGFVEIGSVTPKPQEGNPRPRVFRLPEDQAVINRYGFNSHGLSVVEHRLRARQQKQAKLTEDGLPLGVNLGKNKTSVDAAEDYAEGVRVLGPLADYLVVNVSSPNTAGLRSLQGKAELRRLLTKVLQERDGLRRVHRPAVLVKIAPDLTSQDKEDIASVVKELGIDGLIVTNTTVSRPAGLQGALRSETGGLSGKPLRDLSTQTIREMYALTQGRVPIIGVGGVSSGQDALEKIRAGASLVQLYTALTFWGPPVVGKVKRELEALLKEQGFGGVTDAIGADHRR

DHODH [2] = target: T1, DHODH; conditions: cited from earlier work; for Km: substrate/cosubstrate
Target sequence in this assay (Q02127 whole entry): as the sequence (Q02127 whole entry, species assumed) above

type I IMPDH = type I IMPDH (Homo sapiens, UniProt P20839); conditions: cited from earlier work; for Ki: product inhibition
type II IMPDH = type II IMPDH (Homo sapiens, UniProt P12268); conditions: cited from earlier work; for Ki: product inhibition
IMPDH type I = IMPDH type I (Homo sapiens, UniProt P20839); conditions: uncompetitive inhibitor; read-out: Ki against type I; cited from earlier work
IMPDH type II [3] = target: T2, IMPDH type II (Homo sapiens, UniProt P12268); conditions: uncompetitive inhibitor; read-out: Ki against type II; cited from earlier work
[4] = test system: B cell and T cell proliferation; conditions: cited from earlier work
[5] = daily dosage of 2-3 g MMF, adult transplant recipients; cited from earlier work
Jurkat T cells [6] = assay: Proliferation (3H-Tdr incorporation) of untransfected or mock-transfected Jurkat T cells; format: cell-based, human
Experimental: (§1) Jurkat T cells (Human CD4+ T cell line from American Type Culture Collection, ATCC Number: TIB-152) were passaged in T cell culture media containing 0, 100, 125, 150, 175, and 200 μg/ml hygromycin. Unless otherwise stated, T cell culture media was prepared by addition of 13.7 ml HEPES (Irvine Scientific catalog No. 9319), 5 ml L-Glutamine (BioWhittaker Catalog No. 17-605C) and 57 ml heat inactivated fetal calf serum (Hyclone catalog No. SH30070.03) to 500 ml RPMI 1640 medium without Phenol Red pH indicator (Irvine Scientific catalog No. 9160).
To assess proliferation by ^3H-Tdr incorporation, a volume of cell suspension containing 5×10^6 cells was diluted to 10 ml and incubated at 37° C. and 5% CO2. On days 8, 10, 12, and 15, volumes of cell suspension yielding 0.6×10^6 cells were placed in 15 ml conical tubes and centrifuged at 1100 rpm for 8 minutes at room temperature. Supernatant was removed and cells were resuspended in […] T cell media. Aliquots of 0.1 ml each were dispensed into wells of a 96 well round bottom plate. Six wells were used for each clone. ^3H-Tdr (ICN catalog No. 24041) was diluted 1:20 with T cell media. Each well was pulsed by adding 50 μl/well (lpCi ^3H-Tdr/well) dilute ^3H-Tdr and incubating for 4 hours. Wells were harvested onto filter paper using a PhD Cell Harvester and CPM were counted in a liquid scintillation counter by standard scintillation procedures.
(§2) The amount of cell proliferation and viability were measured by the methods described in Example 1 at 72, 96, and 144 hours thereafter. OKT3/rhlL-2-activated PBMCs from healthy donors were passaged under the above conditions, and the amount of cell proliferation measured at the same time intervals.
Jurkat T cells (ATCC Number: TIB-152) were grown in T cell culture media in log phase and then subjected to electroporation by the method described in Example 1 in the presence of plasmid DNA vector IMPDH(T333I/S351Y)/pMG as described above. As a control (“mock”), Jurkat T cells were mock-transfected by electroporation with plasmid-free buffer.
As a control, mock-transfected Jurkat T cells were passaged under the same conditions.
As a control, mock-transfected Jurkat T cells were cultured under the same conditions.

Jurkat T cells [7] = assay: Viability (Trypan Blue) of untransfected or mock-transfected Jurkat T cells; format: cell-based, human
Experimental: as §1
(§3) The viability of Jurkat T cells and PBMCs was determined using the Trypan Blue method for counting and calculating the number of live cells. […] Viable cells (unstained cells) and dead cells (blue stained cells) were counted in two diagonally opposite large corner squares of the hemacytometer and the total number of viable cells in the suspension and percentage of viable cells in the population were calculated. The total number of viable cells in the suspension was calculated by multiplying the mean number of cells counted per square by the dilution factor multiplied by 10^4. The percentage of viable cells in the population was calculated by dividing the total number of viable cells per ml by the total number of cells per ml multiplied by 100. […]

[8] = test system: OKT3/rhIL-2-activated PBMCs; assay: Proliferation (3H-Tdr incorporation) of OKT3/rhIL-2-activated PBMCs; format: cell-based, human; conditions: MPA 1×10^−7M to 1×10^−4M, 72, 96, 144 hours
Experimental: (§4) Five hundred million freshly isolated, healthy donor peripheral blood mononuclear cells (PBMCs) were diluted to a volume of 500 ml with T cell culture media. PBMCs were activated with 15 λ anti-CD3 monoclonal antibody Orthoclone OKT3 (Ortho Biotech Inc.). Ten 50 ml aliquots of PBMC/OKT3 were placed in separate flasks. To each PBMC/OKT3 flask, 50 μL of stock 50 U/μl recombinant human IL-2 (Chiron catalog No. 53905-991-01) was added to stimulate proliferation. OKT3/rhIL-2-activated PBMCs were passaged under the same conditions as described for the Jurkat T cells. The amount of Jurkat T cell and PBMC proliferation was determined by measuring DNA incorporation of ^3H-Tdr 8, 10, 12, and 15 days thereafter.
To assess proliferation by ^3H-Tdr incorporation, a volume of cell suspension containing 5×10^6 cells was diluted to 10 ml and incubated at 37° C. and 5% CO2. […] Wells were harvested onto filter paper using a PhD Cell Harvester and CPM were counted in a liquid scintillation counter by standard scintillation procedures.
as §2

[9] = test system: OKT3/rhIL-2-activated PBMCs; assay: Viability (Trypan Blue) of OKT3/rhIL-2-activated PBMCs; format: cell-based, human; conditions: MPA 1×10^−7M to 1×10^−4M, 72, 96, 144 hours
Experimental: as §4
as §3, with “10^4.” for “10^4. The percentage of viable cells in the population was calculated by dividing the total number of viable cells per ml by the total number of cells per ml multiplied by 100.”

[10] = test system: Jurkat T cells transfected with plasmid IMPDH(T333I/S351Y)/pMG; assay: Proliferation (3H-Tdr incorporation) of Jurkat T cells transfected with IMPDH(T333I/S351Y)/pMG; format: cell-based, human
[11] = test system: Jurkat T cells transfected with plasmid IMPDH(T333I/S351Y)/pMG; assay: Viability (Trypan Blue) of Jurkat T cells transfected with IMPDH(T333I/S351Y)/pMG; format: cell-based, human; conditions: hygromycin-resistant transfectants
Bacillus subtilis IMPDH = Bacillus subtilis IMPDH (Bacillus subtilis, UniProt P21879); conditions: Farazi et al. 1997; cited from earlier work
Escherichia coli IMPDH = Escherichia coli IMPDH (Escherichia coli, UniProt P0ADG7); conditions: Farazi et al. 1997; cited from earlier work
[12] = target: Tritrichomonas foetus IMPDH (Tritrichomonas foetus, UniProt P50097); conditions: Farazi et al. 1997; cited from earlier work
IMPDH type II [13] = target: T2, IMPDH type II; conditions: cited from earlier work
IMPDH = conditions: competition for NAD+ cofactor-binding site; Yamada et al. 1989; read-out: Ki against NAD; cited from earlier work
[14] = human DHODH, read-out: Ki, uncompetitive with respect to dihydroorotate
[15] = Jurkat, MPA 1×10^−7M to 1×10^−4M, 72, 96, 144 hours

Chain of type I IMPDH (P20839 whole entry): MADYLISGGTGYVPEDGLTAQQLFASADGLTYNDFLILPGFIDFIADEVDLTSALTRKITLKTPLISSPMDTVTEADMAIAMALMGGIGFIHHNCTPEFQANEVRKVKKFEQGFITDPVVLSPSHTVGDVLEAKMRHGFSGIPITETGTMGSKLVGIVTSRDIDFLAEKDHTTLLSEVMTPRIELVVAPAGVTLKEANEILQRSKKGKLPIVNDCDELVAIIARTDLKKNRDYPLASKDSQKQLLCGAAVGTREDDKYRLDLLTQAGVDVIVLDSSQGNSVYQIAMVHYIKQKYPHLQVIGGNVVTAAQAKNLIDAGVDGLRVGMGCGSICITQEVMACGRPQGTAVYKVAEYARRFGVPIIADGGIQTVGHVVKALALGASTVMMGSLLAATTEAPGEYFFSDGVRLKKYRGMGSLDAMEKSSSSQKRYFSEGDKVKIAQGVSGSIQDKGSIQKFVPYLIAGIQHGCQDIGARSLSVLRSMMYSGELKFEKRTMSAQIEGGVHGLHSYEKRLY
Chain of Tritrichomonas foetus IMPDH (P50097 whole entry): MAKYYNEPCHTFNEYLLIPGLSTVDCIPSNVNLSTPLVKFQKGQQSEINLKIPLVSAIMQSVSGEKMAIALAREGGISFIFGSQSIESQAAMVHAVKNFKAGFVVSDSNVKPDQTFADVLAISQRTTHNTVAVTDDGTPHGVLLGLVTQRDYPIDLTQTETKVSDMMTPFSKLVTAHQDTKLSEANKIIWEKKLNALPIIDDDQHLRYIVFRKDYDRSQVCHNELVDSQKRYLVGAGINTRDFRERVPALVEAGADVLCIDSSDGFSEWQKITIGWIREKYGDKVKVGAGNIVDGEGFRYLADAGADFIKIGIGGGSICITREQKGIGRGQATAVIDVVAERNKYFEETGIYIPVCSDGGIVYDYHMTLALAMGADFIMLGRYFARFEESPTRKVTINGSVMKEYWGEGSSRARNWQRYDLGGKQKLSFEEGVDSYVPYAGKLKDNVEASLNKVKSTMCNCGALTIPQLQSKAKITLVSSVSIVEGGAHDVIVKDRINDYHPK
Chain of IMPDH type I (P20839 whole entry): as the sequence (P20839 whole entry) above
Chain of Escherichia coli IMPDH (P0ADG7 whole entry): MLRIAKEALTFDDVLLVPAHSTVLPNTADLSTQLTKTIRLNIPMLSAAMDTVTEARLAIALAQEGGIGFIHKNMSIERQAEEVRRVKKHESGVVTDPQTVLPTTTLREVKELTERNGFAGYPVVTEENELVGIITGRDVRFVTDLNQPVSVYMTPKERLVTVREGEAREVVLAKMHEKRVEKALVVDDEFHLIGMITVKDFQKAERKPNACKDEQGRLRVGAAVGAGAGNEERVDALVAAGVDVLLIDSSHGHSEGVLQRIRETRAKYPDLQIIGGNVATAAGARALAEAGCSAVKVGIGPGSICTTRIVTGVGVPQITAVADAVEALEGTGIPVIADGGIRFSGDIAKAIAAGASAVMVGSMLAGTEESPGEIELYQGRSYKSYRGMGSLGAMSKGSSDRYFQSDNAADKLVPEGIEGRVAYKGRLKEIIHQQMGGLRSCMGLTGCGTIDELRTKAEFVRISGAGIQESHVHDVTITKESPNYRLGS
Chain of Bacillus subtilis IMPDH (P21879 whole entry): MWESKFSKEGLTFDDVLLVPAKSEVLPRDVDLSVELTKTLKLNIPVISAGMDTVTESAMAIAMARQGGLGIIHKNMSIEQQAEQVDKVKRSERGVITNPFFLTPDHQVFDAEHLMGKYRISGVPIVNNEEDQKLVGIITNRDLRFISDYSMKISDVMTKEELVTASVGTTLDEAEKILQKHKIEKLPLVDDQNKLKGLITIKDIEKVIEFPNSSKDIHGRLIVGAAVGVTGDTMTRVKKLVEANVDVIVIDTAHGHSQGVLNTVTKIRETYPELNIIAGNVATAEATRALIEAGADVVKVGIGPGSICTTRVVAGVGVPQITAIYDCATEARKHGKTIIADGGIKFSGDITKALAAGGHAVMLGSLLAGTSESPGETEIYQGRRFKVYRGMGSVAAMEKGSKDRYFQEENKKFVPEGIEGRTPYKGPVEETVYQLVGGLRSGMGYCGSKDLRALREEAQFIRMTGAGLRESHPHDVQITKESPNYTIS

Cc1nc2c(n1-c1ccc(Br)cc1)C(=O)c1ccccc1C2=O [BNID, 1-(p-bromophenyl)-2-methyl 1H-napth(2,3-d)-imidazole-4,9-dione]
Ki (DHODH [1]): 0.53 µM

O=C1C(O)=C([C@H]2CC[C@H](c3ccc(Cl)cc3)CC2)C(=O)c2ccccc21 [Atovaquone]
Ki (DHODH [2]; [14]): 11.5 µM

O=C(O)c1cc(=O)[nH]c(=O)[nH]1 [Orotate]
Ki (DHODH [2]; competitive with respect to dihydroorotate, read-out: Kis (slope inhibition constant)): 22 ± 3 µM
Ki (DHODH [2]; uncompetitive with respect to quinone, read-out: Kij (intercept inhibition constant)): 60 ± 10 µM

COC1=C(OC)C(=O)C(C/C=C(\C)CC/C=C(\C)CC/C=C(\C)CC/C=C(\C)CC/C=C(\C)CC/C=C(\C)CC/C=C(\C)CC/C=C(\C)CC/C=C(\C)CCC=C(C)C)=C(C)C1=O [ubiquinone]
Km (DHODH [2]; human DHODH): ~110 µM

xanthine monophosphate [XMP]
Ki (type I IMPDH): ~80 µM
Ki (type II IMPDH): ~94 µM

CCCCCCCCCCC1=C(C)C(=O)C(OC)=C(OC)C1=O [decylubiqunone]
Km (DHODH [2]; human DHODH): ~13.7 µM

NC(=O)c1ccc[n+]([C@@H]2O[C@H](COP(=O)([O-])OP(=O)(O)OC[C@H]3O[C@@H](n4cnc5c(N)ncnc54)[C@H](O)[C@@H]3O)[C@@H](O)[C@H]2O)c1 [NAD]
Km (type I IMPDH; substrate/cofactor): ~46 µM
Km (type II IMPDH; substrate/cofactor): ~32 µM

COc1cc(-c2ccc(Nc3ccccc3C(=O)O)c(OC)c2)ccc1Nc1ccccc1C(=O)O [Redoxal]
Ki (DHODH [2]; non-competitive for dihydroorotate and ubiquinone, read-out: apparent Ki): 0.33 µM

COc1cc(NC(=O)Nc2cccc(CNC(=O)O[C@H]3CCOC3)c2)ccc1-c1cnco1 [VX-497]
Ki (IMPDH type I): 0.007 µM
Ki (IMPDH type II [3]): 0.01 µM
IC50 [4]: ~0.1 µM

COc1c(C)c2c(c(O)c1C/C=C(\C)CCC(=O)OCCN1CCOCC1)C(=O)OC2 [MMF, Mycophenolate mofetil]
therapeutically relevant blood trough levels [5]: 1 to 5 µg/mL

COc1c(C)c2c(c(O)c1C/C=C(\C)CCC(=O)O)C(=O)OC2 [MPA, Mycophenolic acid]
proliferation vs. absence of MPA (Jurkat T cells [6]; [15]): significantly reduced
proliferation in presence of mycophenolic acid (Jurkat T cells [6]; control Jurkat, MPA 1×10^−6M to 2×10^−5M): essentially completely inhibited
proliferation in medium containing mycophenolic acid (Jurkat T cells [6]; mock-transfected Jurkat, MPA 2×10^−7M to 2×10^−5M): did not proliferate
3H-Tdr incorporation, % of media control (Jurkat T cells [6]; mock-transfected Jurkat, mycophenolic acid 2×10^−7 M and greater): less than 3%
viability vs. absence of MPA (Jurkat T cells [7]; [15]): significantly reduced
viable cells in medium containing mycophenolic acid (Jurkat T cells [7]; mock-transfected Jurkat, by 36 days): no viable cells were detected
proliferation vs. absence of MPA [8]: significantly reduced by MPA at all concentrations, except the lowest concentration
viability vs. absence of MPA [9]: significantly reduced by MPA at all concentrations, except the lowest concentration
maximum 3H-Tdr incorporation maintained ([10]; five of the ten MPA-resistant clones, MPA 1×10^−6M or less): greater than 50%
proliferation, % of the maximum proliferation in the absence of MPA ([10]; hygromycin-resistant transfectants, 2×10^−6M to 2×10^−7M MPA): 20-92%
transfectant cells demonstrating proliferation ([10]; limiting dilution in 3×10^−6 M mycophenolic acid, 21 days after transfection, 10^4 cells per well): Approximately 10%
viability at day 21 post-transfer compared to day 0 ([11]; higher concentrations of mycophenolic acid): somewhat less viable
viability at day 21 post-transfer ([11]; lower concentrations of mycophenolic acid): more viable at day 21 post-transfer than those cultured in medium containing higher concentrations of mycophenolic acid
Ki (Bacillus subtilis IMPDH): 0.5 µM
Ki (Escherichia coli IMPDH): 20 µM
Ki [12]: 14 µM
higher binding affinity for human IMPDH type II over human IMPDH type I (IMPDH type II [13]): approximately 5 fold

O=C1C(O)=C(CC=C(Cl)Cl)C(=O)c2ccccc21 [DCL, dichloroallyl lawsone]
Ki (DHODH [2]; human DHODH, read-out: Ki, competitive with respect to ubiquinone): 0.0098 µM
Ki (DHODH [2]; [14]): 0.038 µM

CC(=O)N1CCc2c([nH]c3ccc(Br)cc23)C1c1ccccc1 (stereo not shown) [NSC 665564]
IC50 compared with Brequinar (DHODH [1]): comparable IC50 to Brequinar
Ki compared with Brequinar (DHODH [1]): lower Ki

NC(=O)c1csc(C2O[C@@H](COP(=O)(O)OP(=O)(O)OC[C@H]3OC(n4cnc5c(N)ncnc54)[C@H](O)[C@@H]3O)[C@H](O)[C@@H]2O)n1 (stereo partly shown) [TAD, thiazole-4-carboxamide adenine dinucleotide]
Ki (IMPDH): 0.075 µM

NC(=O)C1=CN([C@@H]2O[C@H](COP(=O)(O)OP(=O)(O)OC[C@H]3O[C@@H](n4cnc5c(N)ncnc54)[C@H](O)[C@@H]3O)[C@@H](O)[C@H]2O)C=CC1 [NADH]
Ki (type I IMPDH): ~102 µM
Ki (type II IMPDH): ~90 µM

O=C1CC(C(=O)O)NC(=O)N1 (stereo not shown) [dihydroorotate]
Km (DHODH [2]; human DHODH): ~9.4 µM
